What was measured:
Assay type in all cases: biochemical
GSK3α = GSK3α (Homo sapiens, UniProt P49840); assay: GSK3α in vitro enzymatic assay (Kinase-Glo Max luminescence); conditions: recombinant human GSK3, 10 μM ATP; approximate values; read-out: Potency GSK3alpha
Protocol: (§1) Enzymatic activities of compounds of the present disclosure can be tested using recombinant human GSK3 in an in vitro enzymatic assay to determine the ability of the compounds of the present disclosure to inhibit GSK3α and GSK3β.
(§2) The assay was performed using Kinase-Glo® Max luminescence kinase assay kit (Promega). The assay measures kinase activity by quantitating the amount of ATP remaining in solution following a kinase reaction. The luminescent signal from the assay is correlated with the amount of ATP present and is inversely correlated with the amount of kinase activity.
(§3) To perform the assay, compounds were diluted in 10% DMSO and 5 μl of the dilution was added to a 50 μl reaction so that the final concentration of DMSO was 1% in all of reactions. The enzymatic reactions were conducted at 30° C. for 40 minutes. The 50 μl reaction mixture contained 40 mM Tris, pH 7.4, 10 mM MgCl2, 0.1 mg/ml BSA, 2 mM DTT, 0.1 mg/ml GSK tide substrate, 10 uM ATP and GSK3. After the enzymatic reaction, 50 μl of Kinase-Glo Max Luminescence kinase assay solution (Promega) was added to each reaction and plates were incubated for 15 minutes at room temperature. Luminescence signal was measured using a BioTek Synergy 2 microplate reader.
(§4) Kinase activity assays were performed in duplicate at each concentration. The luminescence data were analyzed using the computer software, GraphPad Prism. The difference between luminescence intensities in the absence of Kinase (Lut) and in the presence of Kinase (Luc) was defined as 100% activity (Lut-Luc). Using luminescence signal (Lu) in the presence of the compound, percent activity was calculated as: % activity={(Lut-Lu)/(Lut-Luc)}×100%, where Lu=the luminescence intensity in the presence of the compound (all percent activities below zero were shown zero in the table).
(§5) The values of percent activity versus a series of compound concentrations were then plotted using non-linear regression analysis of Sigmoidal dose-response curve generated with the equation Y=B+(T−B)/1+10((LogEC50−X)×Hill Slope), where Y=percent activity, B=minimum percent activity, T=maximum percent activity, X=logarithm of compound and Hill Slope=slope factor or Hill coefficient. The ICs, value was determined by the concentration causing a half-maximal percent activity.

GSK3β = GSK3β (Homo sapiens, UniProt P49841); assay: GSK3β in vitro enzymatic assay (Kinase-Glo Max luminescence); conditions: recombinant human GSK3, 10 μM ATP; approximate values; read-out: Potency GSK3beta
Protocol: as §1, §2, §3, §4, §5

LSD2 = target: T1, LSD2 (Homo sapiens, UniProt Q8NB78); assay: LSD2 A-screen (AlphaScreen) demethylase enzymatic assay; conditions: approximate values; for inhibition at 50 µM: 50 μM compound, read-out: Potency LSD-2 % Inhibition at 50 μM; for IC50: read-out: Potency LSD-2 IC50
T1 sequence (Q8NB78 1-822): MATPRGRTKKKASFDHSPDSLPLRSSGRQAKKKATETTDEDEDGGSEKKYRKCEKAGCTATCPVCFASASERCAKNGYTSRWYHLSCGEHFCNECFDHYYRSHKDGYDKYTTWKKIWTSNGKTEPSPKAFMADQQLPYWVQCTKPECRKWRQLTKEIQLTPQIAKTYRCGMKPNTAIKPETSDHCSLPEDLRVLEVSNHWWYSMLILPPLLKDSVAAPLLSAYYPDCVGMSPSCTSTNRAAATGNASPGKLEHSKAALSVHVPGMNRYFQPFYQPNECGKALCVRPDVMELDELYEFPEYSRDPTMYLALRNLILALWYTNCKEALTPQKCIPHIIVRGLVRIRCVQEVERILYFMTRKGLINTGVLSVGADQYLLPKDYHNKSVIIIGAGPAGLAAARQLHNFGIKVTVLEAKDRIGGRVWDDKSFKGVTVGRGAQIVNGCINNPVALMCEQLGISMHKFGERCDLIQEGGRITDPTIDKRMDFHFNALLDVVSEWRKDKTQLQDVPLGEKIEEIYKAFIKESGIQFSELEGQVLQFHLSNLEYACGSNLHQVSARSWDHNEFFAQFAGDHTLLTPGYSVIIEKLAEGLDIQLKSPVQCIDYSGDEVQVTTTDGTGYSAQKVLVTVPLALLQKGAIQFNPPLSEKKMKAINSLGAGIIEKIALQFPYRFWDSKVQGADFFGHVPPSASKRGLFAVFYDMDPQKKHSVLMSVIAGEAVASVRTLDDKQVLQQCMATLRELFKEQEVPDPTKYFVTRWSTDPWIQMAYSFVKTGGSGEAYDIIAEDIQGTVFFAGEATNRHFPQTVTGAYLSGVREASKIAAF
Protocol: (§6) Enzymatic activities of compounds of the present disclosure can be tested with recombinant human LSD using an in vitro enzymatic assay to determine the ability of the compounds of the present disclosure to inhibit LSD-1 and LSD2. Examples of the assay are provided below.
(§7) All of the enzymatic reactions were conducted in duplicate at room temperature for 60 minutes in a 10 μL mixture containing assay buffer, histone H3 peptide substrate, demthylase enzyme, and the test compound. These 10 μL reactions were carried out in wells of a 384-well Optiplate (PerkinElmer). The dilution of the compounds was first performed in 100% DMSO with the highest concentration at 5 mM Each intermediate compound dilution (in 100% DMSO) was then directly diluted 30× fold into assay buffer for 3.3× concentration (DMSO). […] From this intermediate step, 3 μL of compound was added to 4 μL of demethylase enzyme dilution was incubated for 30 minutes at room temperature. After this incubation, 3 μL of peptide substrate was added. The final DMSO concentration was 1%. After enzymatic reactions, 5 μL of anti-Mouse or anti-Rabbit Acceptor beads (PerkinElmer, diluted 1:500 with 1× detection buffer) and […] (BPS, diluted 1:800 with 1× detection buffer) were added to the reaction mix. After brief shaking, the plate was incubated for 30 minutes. Finally, 10 μL of AlphaScreen™ Streptavidin-conjugated donor beads (Perkin, diluted 1:125 with 1× detection buffer) were added. After 30 minutes, the samples were measured in an AlphaScreen microplate reader (EnSpire Alpha 2390 Multilabel Reader, Perkin Elmer).
(§8) Enzyme activity assays were performed in duplicates at each concentration. The A-screen intensity data were analyzed and compared. In the absence of the compound, the intensity in each data set was defined as 100% (Ce) activity. In the absence of enzyme, the intensity in each data set was defined as 0% (C0) activity. The percent activity in the presence of each compound was calculated according to the following equation: % activity=(C−C0)/(Ce−C0), where C=the intensity in the presence of the compound.
as §5, with “value” for “values”, “was” for “were”, “IC50” for “ICs,”

LSD-1 = LSD-1 (Homo sapiens, UniProt O60341); assay: LSD-1 A-screen (AlphaScreen) demethylase enzymatic assay; conditions: approximate values; for inhibition at 50 µM: 50 μM compound, read-out: Potency LSD-1 % Inhibition at 50 μM; for IC50: read-out: Potency LSD-1 IC50
Protocol: as §6, §7, §8
as §5, with “value” for “values”, “was” for “were”, “IC50” for “ICs,”

GSK3α, sequence (P49840 whole entry): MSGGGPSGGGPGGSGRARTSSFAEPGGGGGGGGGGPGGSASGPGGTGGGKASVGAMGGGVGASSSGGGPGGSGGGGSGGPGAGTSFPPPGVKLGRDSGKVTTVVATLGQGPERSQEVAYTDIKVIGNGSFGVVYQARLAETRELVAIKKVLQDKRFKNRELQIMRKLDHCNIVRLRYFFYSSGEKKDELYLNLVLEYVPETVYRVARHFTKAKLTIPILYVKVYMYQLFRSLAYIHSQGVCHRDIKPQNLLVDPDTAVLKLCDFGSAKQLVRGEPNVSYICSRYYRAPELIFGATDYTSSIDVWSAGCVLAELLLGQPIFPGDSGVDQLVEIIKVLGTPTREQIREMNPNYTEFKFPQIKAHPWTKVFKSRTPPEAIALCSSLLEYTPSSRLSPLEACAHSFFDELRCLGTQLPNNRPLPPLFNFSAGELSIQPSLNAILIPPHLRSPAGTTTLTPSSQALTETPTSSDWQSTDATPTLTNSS
GSK3β, sequence (P49841 whole entry): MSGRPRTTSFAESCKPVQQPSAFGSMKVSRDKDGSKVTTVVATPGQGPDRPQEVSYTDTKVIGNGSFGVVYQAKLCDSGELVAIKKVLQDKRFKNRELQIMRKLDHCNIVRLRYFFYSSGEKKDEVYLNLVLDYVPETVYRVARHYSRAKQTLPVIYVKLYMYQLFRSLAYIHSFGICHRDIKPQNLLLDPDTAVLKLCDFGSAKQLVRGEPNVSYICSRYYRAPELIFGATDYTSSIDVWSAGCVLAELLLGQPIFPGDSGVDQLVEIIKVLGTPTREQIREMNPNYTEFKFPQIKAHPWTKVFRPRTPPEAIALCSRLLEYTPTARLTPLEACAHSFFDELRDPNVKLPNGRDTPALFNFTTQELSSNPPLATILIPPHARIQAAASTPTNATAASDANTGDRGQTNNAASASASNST

SMILES | IC50 (GSK3α) [nM] | IC50 (GSK3β) [nM] | inhibition at 50 µM (LSD2) [%] | inhibition at 50 µM (LSD-1) [%] | IC50 (LSD-1) [nM] | IC50 (LSD2) [µM]
CCn1cc(C(=O)O)c(=O)c2c(N)c(F)c(N3CCC(N[C@@H]4C[C@H]4c4ccccc4)CC3)cc21 (relative stereo) [Compound I-26] | > 10000 | > 10000 | 53 |  | 1500 | 
CCn1cc(C(=O)O)c(=O)c2c(N)c(F)c(N[C@H]3CC[C@H](N[C@@H]4C[C@H]4c4ccccc4)CC3)cc21 (relative stereo) [Compound I-27] | 47 | 75 | 45 |  | 1600 | 
CCn1cc(C(=O)O)c(=O)c2c(N)c(F)c(N[C@H]3CC[C@@H](N[C@@H]4C[C@H]4c4ccccc4)CC3)cc21 (relative stereo) [Compound I-28] | 451 | 691 | 65 |  | 1300 | 
CCn1cc(C#N)c(=O)c2c(N)c(F)c(N[C@@H]3C[C@H]3c3ccccc3)cc21 (relative stereo) [Compound I-38] | 6.3 | 2.5 | 0 | 15 |  | 
CCn1cc(C(=O)O)c(=O)c2c(N)c(F)c(N(C)CCN[C@H]3C[C@@H]3c3ccccc3)cc21 (relative stereo) [Compound I-50] | > 10000 | > 10000 | 50 |  | 5500 | 
CCn1cc(C(=O)O)c(=O)c2c(N)cc(N[C@@H]3C[C@H]3c3ccccc3)cc21 (relative stereo) [Compound I-59] | 4680 | 4430 | 24 | 11 |  | 
CCn1cc(C(=O)O)c(=O)c2c(N)c(F)c(Nc3ccc([C@@H]4C[C@H]4N)cc3)cc21 (relative stereo) [Compound I-62] | 449 | 504 |  |  | > 100000 | 49
CCn1cc(C(=O)O)c(=O)c2c(N)c(F)c(NC3CC(N[C@@H]4C[C@H]4c4ccccc4)C3)cc21 (relative stereo) [Compound I-70] | 207 | 169 |  |  | 1100 | > 100
CCn1cc(C(=O)O)c(=O)c2c(N)c(F)c(NCCN[C@@H]3C[C@]34CCc3ccccc34)cc21 (relative stereo) [Compound I-81] | 457 | 546 |  |  | 58 | 43
CCn1cc(C(=O)O)c(=O)c2c(N)c(F)c(NCCN[C@@H]3C[C@@]34CCc3ccccc34)cc21 (relative stereo) [Compound I-82] | 1550 | 3380 | 76 |  | 190 | 

The remaining lines, values ahead:

IC50 (GSK3α) [nM] | IC50 (GSK3β) [nM] | inhibition at 50 µM (LSD2) [%] | inhibition at 50 µM (LSD-1) [%] | IC50 (LSD-1) [nM] | IC50 (LSD2) [µM] | SMILES
628 | 555 | 18 | 26 |  |  | CCn1cc(C(=O)O)c(=O)c2c(N)c(F)c(N[C@@H]3CC[C@H]3c3ccccc3)cc21 (relative stereo) [Compound I-13]
> 10000 | > 10000 | 3 | 5 |  |  | CCn1cc(C(=O)O)c(=O)c2c(N)c(F)c(N[C@@H]3CC[C@@H]3c3ccccc3)cc21 (relative stereo) [Compound I-14]
221 | 770 | 16 | 26 |  |  | CCn1cc(C(=O)O)c(=O)c2c(N)c(F)c(N[C@@H]3C[C@@H]3c3ccccc3)cc21 (relative stereo) [Compound I-23]
119 | 303 | 54 |  | 6900 |  | CCn1cc(C(=O)O)c(=O)c2c(N)c(F)c(NCCN[C@@H]3C[C@H]3c3ccccc3)cc21 (relative stereo) [Compound I-29]
1600 | 2100 | 36 | 40 |  |  | Nc1c(F)c(N[C@@H]2C[C@H]2c2ccccc2)c(F)c2c1c(=O)c(C(=O)O)cn2C1CC1 (relative stereo) [Compound I-32]
3.3 | 3.4 |  |  | 230 | > 100 | CCn1cc(C(N)=O)c(=O)c2c(N)c(F)c(NCCN[C@H]3C[C@@H]3c3ccccc3)cc21 (relative stereo) [Compound I-83]
2.7 | 2.2 |  |  | 1400 | 41 | CCn1cc(C#N)c(=O)c2c(N)c(F)c(NCCN[C@@H]3C[C@H]3c3ccccc3)cc21 (relative stereo) [Compound I-84]
919 | 2170 | 6 |  | 1900 |  | Cn1cc(C(=O)O)c(=O)c2c(N)c(F)c(NCCN[C@@H]3C[C@H]3c3ccccc3)cc21 (relative stereo) [Compound I-86]
114 | 157 | 15 |  | 3300 |  | CCCn1cc(C(=O)O)c(=O)c2c(N)c(F)c(NCCN[C@@H]3C[C@H]3c3ccccc3)cc21 (relative stereo) [Compound I-87]
19.5 | 83 | 14 |  | 2600 |  | CC(C)n1cc(C(=O)O)c(=O)c2c(N)c(F)c(NCCN[C@@H]3C[C@H]3c3ccccc3)cc21 (relative stereo) [Compound I-88]
393 | 308 | 5 |  | 7400 |  | Nc1c(F)c(NCCN[C@@H]2C[C@H]2c2ccccc2)cc2c1c(=O)c(C(=O)O)cn2C1CC1 (relative stereo) [Compound I-89]

From patent US20230058189A1, “QUINOLIN-4-ONE AND 4(1H)-CINNOLINONE COMPOUNDS AND METHODS OF USING SAME” (Frequency Therapeutics, Inc., priority 2019, published 2023)
